Laboratory results published in patent US11813306B2, “Cyclic tetramer compounds as proprotein convertase subtilisin/kexin type 9 (PCSK9) inhibitors for the treatment of metabolic disorders” (NOVARTIS AG, priority 2018, dated 2023).
pIC50: −log10 of the molar value.

Target: human PCSK9 (Homo sapiens, UniProt Q8NBP7)
Assay: PCSK9 ligand binding assay (TR-FRET): interference with binding of human PCSK9 to human LDLR
Conditions: for pIC50: Human PCSK9 Alexa Fluor 647 / Human LDLR extracellular domain-Europium Kryptate; for Max % inhibition: efficacy (Amax), 100% = 1 uM unlabeled human PCSK9, 0% = DMSO
Summary of the method: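 Read-out was TR-FRET ratio (665 nm over 615 nm, 330 nm excitation) between Alexa Fluor 647-human PCSK9 (16 nM added) and Europium Kryptate-human LDLR ectodomain (4 nM added). Compound and PCSK9 were mixed 30 min before LDLR, then incubated 2 h. Inhibition was normalised to DMSO and unlabelled-PCSK9 controls, giving IC50 and Amax.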

Chain of human PCSK9 (Q8NBP7 153-692): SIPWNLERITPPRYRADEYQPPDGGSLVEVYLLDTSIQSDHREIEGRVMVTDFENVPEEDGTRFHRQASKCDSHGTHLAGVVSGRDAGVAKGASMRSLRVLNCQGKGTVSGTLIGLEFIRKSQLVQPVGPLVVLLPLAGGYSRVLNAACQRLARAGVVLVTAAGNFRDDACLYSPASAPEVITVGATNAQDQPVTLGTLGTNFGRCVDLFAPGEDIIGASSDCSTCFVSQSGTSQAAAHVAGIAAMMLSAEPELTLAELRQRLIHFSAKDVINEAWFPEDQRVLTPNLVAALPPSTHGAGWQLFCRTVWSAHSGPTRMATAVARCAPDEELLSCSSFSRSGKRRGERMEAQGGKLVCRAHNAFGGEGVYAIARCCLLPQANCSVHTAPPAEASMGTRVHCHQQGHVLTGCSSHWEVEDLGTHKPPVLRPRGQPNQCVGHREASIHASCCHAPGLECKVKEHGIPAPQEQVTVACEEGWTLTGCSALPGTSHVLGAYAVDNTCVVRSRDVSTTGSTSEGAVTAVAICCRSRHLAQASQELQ
Chain of human PCSK9 (Q8NBP7 31-152 partner limits assumed): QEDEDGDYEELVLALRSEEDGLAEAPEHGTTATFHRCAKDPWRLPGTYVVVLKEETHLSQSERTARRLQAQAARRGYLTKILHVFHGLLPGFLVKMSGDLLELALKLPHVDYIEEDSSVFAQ

Row | SMILES | pIC50 | Max % inhibition
1 | C[C@H]1C(=O)N[C@@H](CO)C(=O)N[C@@]2(Cc3ccc(Cl)cc3)CCCN(C2)C(=O)[C@H]([C@@H]2CCc3ccccc32)CC(=O)N1Cc1ccc(Oc2ccc(-c3cnc(CN(C)C)n3C)cc2)cc1F [Compound 123] | 6.46 | 84.4%
2 | COC[C@@H]1NC(=O)[C@H](CCN2CCOCC2)N(Cc2ccc(Cl)cc2Oc2ccc(-c3cnc(CN(C)C)n3C)cc2)C(=O)C[C@@H]([C@H]2CCc3ccccc32)C(=O)N(C)C[C@@H](Cc2ccc(Cl)cc2)N(C)C1=O.Cl [Compound 125, (2S, 5S, 8R, 12S)-1-(4-chloro-2-(4-(2-((dimethylamino)methyl)-1-methyl-1H-imidazol-5-yl)phenoxy)benzyl)-8-(4-chlorobenzyl)-12-((R)-2,3-dihydro-1H-inden-1-yl)-5-(methoxymethyl)-7,10-dimethyl-2-(2-morpholinoethyl)-1,4,7,10-tetraazacyclotetradecane-3,6,11,14-tetraone] | 6.99 | 92.2%
3 | COC[C@@H]1NC(=O)[C@H](CCCN2CCOCC2)N(Cc2ccc(Cl)cc2Oc2ccc(-c3cnc(CN(C)C)n3C)cc2)C(=O)C[C@@H]([C@H]2CCc3ccccc32)C(=O)N(C)C[C@@H](Cc2ccc(Cl)cc2)N(C)C1=O.Cl [Compound 127, (2S, 5S, 8R, 12S)-1-(4-chloro-2-(4-(2-((dimethylamino)methyl)-1-methyl-1H-imidazol-5-yl)phenoxy)benzyl)-8-(4-chlorobenzyl)-12-((R)-2,3-dihydro-1H-inden-1-yl)-5-(methoxymethyl)-7,10-dimethyl-2-(3-morpholinopropyl)-1,4,7,10-tetraazacyclotetradecane-3,6,11,14-tetraone] | 6.86 | 94.3%
4 | CC(=O)C[C@@H]1NC(=O)[C@H](C)N(Cc2ccc(Cl)cc2Oc2ccc(-c3cnc(CN4CCCC4)n3C)cc2)C(=O)C[C@@H](Cc2ccccc2)C(=O)N(C)C[C@@H](Cc2ccc(Cl)cc2)N(C)C1=O.Cl [Compound 129, (2S,5S,8R,12R)-12-benzyl-1-(4-chloro-2-(4-(1-methyl-2-(pyrrolidin-1-ylmethyl)-1H-imidazol-5-yl)phenoxy)benzyl)-8-(4-chlorobenzyl)-2,7,10-trimethyl-5-(2-oxopropyl)-1,4,7,10-tetraaza-cyclotetradecane-3,6,11,14-tetraone hydrochloride] | 6.69 | 87.3%
5 | C[C@H](NCc1ccc(Cl)cc1Oc1ccc(-c2cnc(CN(C)C)n2C)cc1)C(=O)N[C@H]1COC(=O)C[C@@H](Cc2ccccc2)C(=O)N(C)[C@@]2(Cc3ccc(Cl)cc3)CCCN(C2)C1=O [Compound 130, (2S)-N-((3S, 8R, 11R)-8-benzyl-11-(4-chlorobenzyl)-10-methyl-2,6,9-trioxo-5-oxa-1,10-diazabicyclo[9.3.1]pentadecan-3-yl)-2-((4-chloro-2-(4-(2-((dimethylamino)methyl)-1-methyl-1H-imidazol-5-yl)phenoxy)benzyl)amino)propanamide] | 6.06 | 99.3%
6 | COC[C@@H]1NC(=O)[C@H](CCCCN2CCOCC2)N(Cc2ccc(Cl)cc2Oc2ccc(-c3cnc(CN(C)C)n3C)cc2)C(=O)C[C@@H]([C@H]2CCc3ccccc32)C(=O)N(C)C[C@@H](Cc2ccc(Cl)cc2)N(C)C1=O.Cl [Compound 131, (2S, 5S, 8R, 12S)-1-(4-chloro-2-(4-(2-((dimethylamino)methyl)-1-methyl-1H-imidazol-5-yl)phenoxy)benzyl)-8-(4-chlorobenzyl)-12-((R)-2,3-dihydro-1H-inden-1-yl)-5-(methoxymethyl)-7,10-dimethyl-2-(4-morpholinobutyl)-1,4,7,10-tetraazacyclotetradecane-3,6,11,14-tetraone] | 6.55 | 91.9%
7 | COC[C@@H]1NC(=O)[C@H](CCC(=O)N2CCC2)N(Cc2ccc(Cl)cc2Oc2ccc(-c3cnc(CN4CCCC4)n3C)cc2)C(=O)C[C@@H]([C@H]2CC(C)(C)c3ccccc32)C(=O)N(C)C[C@@H](Cc2ccc(Cl)cc2)N(C)C1=O.Cl [Compound 132, (2S,5S,8R,12S)-2-(3-(azetidin-1-yl)-3-oxopropyl)-1-(4-chloro-2-(4-(1-methyl-2-(pyrrolidin-1-ylmethyl)-1H-imidazol-5-yl)phenoxy)benzyl)-8-(4-chlorobenzyl)-12-((R)-3,3-dimethyl-2,3-dihydro-1H-inden-1-yl)-5-(methoxymethyl)-7,10-dimethyl-1,4,7,10-tetraazacyclotetradecane-3,6,11,14-tetraone hydrochloride] | 6.64 | 100.3%
8 | C[C@H]1C(=O)N[C@@H](CC(=O)O)C(=O)N(C)[C@H](Cc2ccc(Cl)cc2)CN(C)C(=O)[C@H](Cc2ccccc2)CC(=O)N1Cc1ccc(Cl)cc1Oc1ccc(-c2cnc(CN3CCCC3)n2C)cc1.Cl [Compound 135, 2-((2S, 5S, 8R, 12R)-12-benzyl-1-(4-chloro-2-(4-(1-methyl-2-(pyrrolidin-1-ylmethyl)-1H-imidazol-5-yl)phenoxy)benzyl)-8-(4-chlorobenzyl)-2,7,10-trimethyl-3,6,11,14-tetraoxo-1,4,7,10-tetraazacyclotetradecan-5-yl)acetic acid] | 6.20 | 91.3%

Further lines, results first:

Row | pIC50 | Max % inhibition | SMILES
9 | 7.03 | 96.9% | COC[C@H]1NC(=O)[C@H](C)N(Cc2ccc(Cl)cc2Oc2ccc(-c3cnc(CN(C)C)n3C)nc2)C(=O)C[C@@H](Cc2ccccc2)C(=O)N2CCC[C@@](Cc3ccc(Cl)cc3)(C2)NC1=O [Compound 122, (3R, 7S, 10R, 13R)-3-benzyl-6-(4-chloro-2-((6-(2-((dimethylamino)methyl)-1-methyl-1H-imidazol-5-yl)pyridin-3-yl)oxy)benzyl)-13-(4-chlorobenzyl)-10-(methoxymethyl)-7-methyl-1,6,9,12-tetraazabicyclo[11.3.1]heptadecane-2,5,8,11-tetraone]
10 | 6.99 | 96.8% | CC[C@@H]1CC(=O)N(Cc2ccc(Cl)cc2Oc2ccc(-c3cnc(CN4CCCC4)n3C)cc2)[C@@H](C)C(=O)N[C@@H](CO)C(=O)N(C)[C@H](Cc2ccc(Cl)cc2)CNC1=O.Cl [Compound 124, (2S, 5S, 8R, 12R)-1-(4-chloro-2-(4-(1-methyl-2-(pyrrolidin-1-ylmethyl)-1H-imidazol-5-yl)phenoxy)benzyl)-8-(4-chlorobenzyl)-12-ethyl-5-(hydroxymethyl)-2,7-dimethyl-1,4,7,10-tetraazacyclotetradecane-3,6,11,14-tetraone]
11 | 6.21 | 100.1% | C[C@H](NCc1ccc(Cl)cc1Oc1ccc(-c2cnc(CN(C)C)n2C)cc1)C(=O)N[C@H]1COC(=O)C[C@@H](Cc2ccccc2)C(=O)N2CCC[C@@](Cc3ccc(Cl)cc3)(C2)N(C)C1=O [Compound 126, (2S)-N-((3R, 8S, 11R)-3-benzyl-11-(4-chlorobenzyl)-10-methyl-2,5,9-trioxo-6-oxa-1,10-diazabicyclo[9.3.1]pentadecan-8-yl)-2-((4-chloro-2-(4-(2-((dimethylamino)methyl)-1-methyl-1H-imidazol-5-yl)phenoxy)benzyl)amino)propanamide]
12 | 6.60 | 89.8% | CC[C@@H]1CC(=O)N(Cc2ccc(Cl)cc2Oc2ccc(-c3cnc(CN4CCCC4)n3C)cc2)[C@@H](C)C(=O)N[C@@H](CO)C(=O)N(C)[C@H](Cc2ccc(Cl)cc2)CN(C)C1=O.Cl [Compound 128, (2S, 5S, 8R, 12R)-1-(4-chloro-2-(4-(1-methyl-2-(pyrrolidin-1-ylmethyl)-1H-imidazol-5-yl)phenoxy)benzyl)-8-(4-chlorobenzyl)-12-ethyl-5-(hydroxymethyl)-2,7,10-trimethyl-1,4,7, 10-tetraazacyclotetradecane-3,6,11,114-tetraone]
13 | 6.31 | 93.6% | COC[C@@H]1NC(=O)[C@H](C)N(Cc2ccc(Cl)cc2Oc2ccc(-c3cnc(CN4CCCC4)n3C)cc2)C(=O)C[C@@H](N(C)C)C(=O)N(C)C[C@@H](Cc2ccc(Cl)cc2)N(C)C1=O.Cl [Compound 134, (2S, 5S, 8R, 12R)-1-(4-chloro-2-(4-(1-methyl-2-(pyrrolidin-1-ylmethyl)-1H-imidazol-5-yl)phenoxy)benzyl)-8-(4-chlorobenzyl)-12-(dimethylamino)-5-(methoxymethyl)-2,7,10-trimethyl-1,4,7,10-tetraazacyclotetradecane-3,6,11,14-tetraone]
14 | 9.59 | 113.0% | COC[C@@H]1NC(=O)[C@H](C)N(Cc2c(F)cc(Cl)cc2Oc2ccc(-c3cnc(CNC(C)(C)C)n3C)cc2)C(=O)C[C@@H](CC(F)(F)F)C(=O)N2CCC[C@@](Cc3ccc(Cl)cc3)(C2)N(C)C1=O [Compound 136, (3S,7S,10S,13R)-6-(2-(4-(2-((tert-Butylamino)methyl)-1-methyl-1H-imidazol-5-yl)phenoxy)-4-chloro-6-fluorobenzyl)-13-(4-chlorobenzyl)-10-(methoxymethyl)-7,12-dimethyl-3-(2,2,2-trifluoroethyl)-1,6,9,12-tetraazabicyclo[11.3.1]heptadecane-2,5,8,11-tetraone]
15 | 9.52 | 113.0% | COC[C@@H]1NC(=O)[C@H](C)N(Cc2c(F)cc(Cl)cc2Oc2ccc(-c3cnc(CN(C)C(C)(C)C)n3C)cc2)C(=O)C[C@@H](CC(F)(F)F)C(=O)N2CCC[C@@](Cc3ccc(Cl)cc3)(C2)NC1=O [Compound 137, (3S,7S,10S,13R)-6-(2-(4-(2-((tert-Butyl(methyl)amino)methyl)-1-methyl-1H-imidazol-5-yl)phenoxy)-4-chloro-6-fluorobenzyl)-13-(4-chlorobenzyl)-10-(methoxymethyl)-7-methyl-3-(2,2,2-trifluoroethyl)-1,6,9,12-tetraazabicyclo[11.3.1]heptadecane-2,5,8,11-tetraone]
